Data: patent US5254584A, “N-acetonylbenzamides and their use as fungicides” (Rohm and Haas Company, priority 1992, dated 1993)
In brackets after ≈: the same amount, converted by molar mass.

Experiments:
cucumber plants = test: In vivo phytotoxic activity, foliar spray, cucumber; parameters: key: +: indicating presence of a plant growth regulatory effect as compared to a control to which a solvent mixture (acetone/water/methanol) lacking the test compound was applied; 0: A zero indicates no apparent effect; settings: foliar spray 2200 g/Ha, seven days after application
Protocol: (§1) The compounds of Examples 1 and 12 were tested in vivo for phytotoxic activity by applying the compounds to the foliage of cucumber, tomato, bean, lettuce and strawberry plants as a spray at a rate of 2200 g/Ha. The plants were evaluated seven days after spray application of the compounds.
(§2) Phototoxicity scores are set forth below in Table 6. The phytotoxicity scores use a symbol, "+", indicating presence of a plant growth regulatory effect as compared to a control to which a solvent mixture (acetone/water/methanol) lacking the test compound was applied. A zero indicates no apparent effect. Each score is a composite representing the mode value for three replicate plants.

Piricularia oryzae [1] = test: organism not typed; assay type: cell-based; settings: 72 h, read-out: PIR percent inhibition of fungal growth
strawberry plants = test: In vivo phytotoxic activity, foliar spray, strawberry; parameters: key: +: indicating presence of a plant growth regulatory effect as compared to a control to which a solvent mixture (acetone/water/methanol) lacking the test compound was applied; 0: A zero indicates no apparent effect; settings: foliar spray 2200 g/Ha, seven days after application
Protocol: as §1, §2

Rhizoctonia solani = test: microbe, parasite or virus in culture; assay type: cell-based; settings: 72 h, 3 days at room temperature, read-out: RHI percent inhibition of fungal growth
Phytophthora capsici = test: microbe, parasite or virus in culture; assay type: cell-based; settings: 72 h, 3 days at room temperature, read-out: PHY percent inhibition of fungal growth
[2] = tested on: Pseudocercosporella herpotrichoides; test: microbe, parasite or virus in culture; assay type: cell-based; settings: Oculimacula yallundae, 72 h, 3 days at room temperature, read-out: PSH percent inhibition of fungal growth
[3] = tested on: Erysiphe graminis (f. sp. tritici); test: Wheat Powdery Mildew (WPM); assay type: in vivo; settings: 300 g/Ha; 8 to 10 days after inoculation; Pennol wheat
Protocol: Wheat Powdery Mildew (WPM) Erysiphe graminis (f. sp. tritici) was cultured on Pennol wheat seedlings in a controlled temperature room at 65° F. to 75° F. Mildew spores were shaken from the culture plants onto Pennol wheat seedlings which had been sprayed previously with the fungicide compound. The inoculated seedlings were kept in a controlled temperature room at 65° F. to 75° F. and subirrigated. […] The fungicidal activity of compound of Example 12 against the above discussed phytopathogenic fungi is set forth in Table 5 as percent disease control at an application rate of 300 g/Ha.

Cercospora arachidicola = test: Peanut Cercospora (PC); settings: in vivo
Plasmopara viticola = test: Downy Mildew of Grapes--Curative (GDC); settings: in vivo
Botrytis cinerea [4] = test: Fungitoxicity assay against Botrytis cinerea (in vitro, colony diameter); assay type: cell-based; settings: 48 hours at 25° C., read-out: Botrytis EC50
Protocol: The compounds of Examples 1-20 were tested in vitro for fungicidal activity and phytotoxicity. A. The compounds were tested in vitro for fungicidal activity against Pythium ultimum, Botrytis cinerea and Venturia inaequalis. Fungitoxicity assay against Botrytis cinerea: […] The mixtures were poured immediately into 9 centimeter (cm) diameter petri dishes. Two replicate plates were used for each treatment. Each plate was inoculated with a 7 mm diameter plug taken from the growing edge of a 5 day old culture of B. cinerea on potato dextrose agar. […] Results of the testing for fungicidal activity against the above named fungi are set forth below in Table 3 as Pythium EC50 (ppm), Botrytis EC50 (ppm) and Venturia MIC (ppm), respectively.

Monilinia fructicol = test: microbe, parasite or virus in culture; assay type: cell-based; settings: 72 h, 3 days at room temperature, read-out: MON percent inhibition of fungal growth
tomato plants = test: In vivo phytotoxic activity, foliar spray, tomato; parameters: key: +: indicating presence of a plant growth regulatory effect as compared to a control to which a solvent mixture (acetone/water/methanol) lacking the test compound was applied; 0: A zero indicates no apparent effect; settings: foliar spray 2200 g/Ha, seven days after application
Protocol: as §1, §2

[5] = tested on: Colletotrichum lagenarium; test: microbe, parasite or virus in culture; assay type: cell-based; settings: Colletotrichum orbiculare, 72 h, 3 days at room temperature, read-out: COL percent inhibition of fungal growth
[6] = tested on: Pseudoperonospora cubensis; test: Cucumber Downy Mildew (CDM); settings: in vivo
Piricularia oryzae [7] = assay type: in vivo; settings: 300 g/Ha; seven to eight days after inoculation; Nato rice
Phytophthora infestans [8] = assay type: in vivo; settings: 300 g/Ha; applied two days after inoculation (curative); tomato
Fusarium roseum = test: microbe, parasite or virus in culture; assay type: cell-based; settings: Fusarium sambucinum, 72 h, read-out: FUS percent inhibition of fungal growth
Phytophthora infestans [9] = assay type: in vivo; settings: 300 g/Ha; 6 days after inoculation; tomato
Cercospora beticola = test: microbe, parasite or virus in culture; assay type: cell-based; settings: 72 h, 3 days at room temperature, read-out: CER percent inhibition of fungal growth
Pythium ultimum = test: microbe, parasite or virus in culture; assay type: cell-based; settings: Globisporangium ultimum, 72 h, 3 days at room temperature, read-out: PYU percent inhibition of fungal growth
bean plants = test: In vivo phytotoxic activity, foliar spray, bean; parameters: key: +: indicating presence of a plant growth regulatory effect as compared to a control to which a solvent mixture (acetone/water/methanol) lacking the test compound was applied; 0: A zero indicates no apparent effect; settings: foliar spray 2200 g/Ha, seven days after application
Protocol: as §1, §2

Botrytis cinerea [10] = test: Botrytis Gray Mold on Tomato (BOT); assay type: in vivo; settings: 300 g/Ha, 5-7 days
Botrytis cinerea [11] = test: microbe, parasite or virus in culture; assay type: cell-based; settings: 72 h, 3 days at room temperature, read-out: BOC percent inhibition of fungal growth

CCC(C)(NC(=O)c1cc(C)cc(C=NOC)c1)C(=O)CCl (centres unmarked) [Example 12, N-[3'-(1'-chloro-3'-methyl-2'-oxopentan)]-3-methoxyiminomethyl-5-methylbenzamide]
phytotoxicity score, Cucumber (cucumber plants): 0
inhibition at 25 ppm (Piricularia oryzae [1]): 100%
phytotoxicity score, Strawberry (strawberry plants): 0
inhibition at 25 ppm (Rhizoctonia solani): 0%
inhibition at 25 ppm (Phytophthora capsici): 100%
inhibition at 25 ppm [2]: 100%
WPM percent disease control [3]: 75%
PC percent disease control (Cercospora arachidicola): 80%
GDC percent disease control (Plasmopara viticola): 50%
IC50 (Botrytis cinerea [4]): 0.28 µg/mL (≈ 0.862 µM)
inhibition at 25 ppm (Monilinia fructicol): 100%
phytotoxicity score, Tomato (tomato plants): 0
inhibition at 25 ppm [5]: 100%
CDM percent disease control [6]: 99%
RB percent disease control (Piricularia oryzae [7]): 75%
TLC percent disease control (Phytophthora infestans [8]): 99%
inhibition at 25 ppm (Fusarium roseum): 0%
TLB percent disease control (Phytophthora infestans [9]): 100%
inhibition at 25 ppm (Cercospora beticola): 100%
inhibition at 25 ppm (Pythium ultimum): 100%
phytotoxicity score, Bean (bean plants): 0
BOT percent disease control (Botrytis cinerea [10]): 100%
inhibition at 25 ppm (Botrytis cinerea [11]): 100%
